Assay results published in patent US12686676B2, “Compound, endothelin-A receptor antagonist, and pharmaceutical composition” (Alchemedicine, Inc., priority 2021, dated 2026).

Key:
[1] = molecular target: T1, human endothelin A receptor (Homo sapiens, UniProt P25101); assay: Endothelin A receptor inhibitory effect (aequorin light emission, endothelin at EC80); type: cell-based; conditions: for IC50: CHO-K1-mt aequorin cells expressing human endothelin A receptor, endothelin at EC80, read-out: ETA receptor inhibitory effect; for ETA selectivity (ETB/ETA): ETB IC50 value/ETA IC50 value
T1 construct: expressed in transfected cells; host or cells: CHO-K1-mt aequorin cells
T1 sequence (P25101 21-427): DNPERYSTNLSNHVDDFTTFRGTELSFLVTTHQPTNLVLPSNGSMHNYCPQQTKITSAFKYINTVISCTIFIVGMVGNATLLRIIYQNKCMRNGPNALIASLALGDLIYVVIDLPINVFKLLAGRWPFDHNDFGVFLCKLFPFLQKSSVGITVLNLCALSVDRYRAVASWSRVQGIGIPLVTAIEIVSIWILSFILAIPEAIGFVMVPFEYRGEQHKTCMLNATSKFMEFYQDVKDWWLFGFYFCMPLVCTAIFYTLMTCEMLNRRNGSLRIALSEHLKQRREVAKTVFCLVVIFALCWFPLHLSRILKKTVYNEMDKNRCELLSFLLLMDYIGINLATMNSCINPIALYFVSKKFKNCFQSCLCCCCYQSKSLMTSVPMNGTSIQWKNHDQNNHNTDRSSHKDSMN
Method: The inhibitory effect on an endothelin A receptor was studied by the following method.
CHO-K1-mt aequorin cells forced to express a human endothelin A receptor (Accession Number NP_001948.1) were cultured in an antibiotic-free medium for 18 hours, then treated with PBS-EDTA (5 mM EDTA), centrifuged (2 min, 405×g, room temperature), and then suspended in an assay buffer (DMEM/HAM's F12 with HEPES+0.1% BSA protease free).
1×10^6 cells/mL of the cells were incubated at room temperature for 4 hours in the presence of coelenterazine h (Molecular Probes, Inc.) (final concentration: 5 µM). Agonistic reaction based on endothelin was confirmed to determine an endothelin concentration corresponding to EC80.
Subsequently, 50 µL (10000 cells/well) of the cell suspension treated with coelenterazine h and 50 µL of an assay buffer containing a test substance (final concentration: 0.5% in DMSO) were added to each well of a 96-well plate. 15 minutes later, endothelin was added such that its final concentration was an EC80 concentration. Receptor activity was measured as the quantity of light emission in FDSS6000 (Hamamatsu Photonics K.K.). IC50 values were calculated using XLfit (ID Business Solutions Ltd. (IDBS)).

[2] = tested on: BigET-1-induced blood pressure; assay: BigET-1-induced blood pressure evaluation test; type: in vivo, Wistar rat; conditions: 30 mg/kg into the duodenum 1 hour before BigET-1 (20 μg/kg); Mean ± SD, N = 6
Method: Each 8- to 20-week-old male Wistar rat was subjected to tracheal catheter treatment for airway management, carotid catheter treatment for blood pressure measurement, femoral venous catheter treatment for BigET-1 administration, and duodenal catheter treatment for test substance administration under analgetic treatment and urethane anesthesia. After confirmation that the blood pressure and the heart rate became stable, a vehicle (0.5% methylcellulose 400 solution) or 30 mg/kg (5 ml/kg) of a test substance adjusted with a vehicle was administered into the duodenum. One hour thereafter, BigET-1 (20 μg/kg) was administered thereto, and the blood pressure was monitored until 60 minutes after BigET-1 administration. The test was conducted at n=6 per group. In analysis, systolic blood pressure and diastolic blood pressure were determined for 20 seconds every 5 minutes from 5 minutes before BigET-1 administration to 60 minutes after BigET-1 administration, and AUC0-60 min (mmHg*min) for 60 minutes after BigET-1 administration was calculated using a delta value from the value obtained 5 minutes before BigET-1 administration. The Student's t test was used for the comparison of AUC between the vehicle administration group and the test substance administration group.

[3] = PAMPA membrane permeability test; type: in vitro ADME; conditions: 10 μM, room temperature, 16 hours
Method: The membrane permeability test was carried out using PAMPA. The specific method is as follows. • (1) Lecithin was added at 2% (w/v) into a dodecane solution and completely dissolved. • (2) 5 μL of the lecithin/dodecane solution was added to each well of a donor plate. In this respect, a pipette tip was positioned in no contact with the membrane. • (3) Immediately thereafter, 150 μL of a donor solution (5% DMSO-PBS) containing an evaluation compound (10 μM) was added to each well of the donor plate, and 300 μL of an aqueous buffer was added to each well of a PTFE acceptor plate. • (4) The donor plate filled with the donor solution containing the evaluation compound was slowly placed on the acceptor plate, and the undersurface of the membrane was confirmed to be in contact with the buffer in all the wells. • (5) After covering, the apparatus was incubated at room temperature for 16 hours. • (6) After incubation, 100 μL of the solution was recovered from each of the upper surface and the undersurface of the membrane in the acceptor plate, and acetonitrile containing an equal amount of an internal standard was added thereto. • (7) The concentration of the evaluation compound was measured to calculate a permeation rate.
A sample having a membrane permeation rate value of 1×10^−8 cm/sec or lower was given “C”; a sample having a value in the range of higher than 1×10^−8 cm/sec and 10×10^−8 cm/sec or lower was given “B”; and a sample having a value of higher than 10×10^−8 cm/sec was given “A”.

Compound | IC50 [1] | Membrane permeation rate [3] | ETA selectivity (ETB/ETA) [1] | Diastolic blood pressure delta AUC0-60 min [2] | Systolic blood pressure delta AUC0-60 min [2]
Cc1onc(NS(=O)(=O)c2cccnc2C#Cc2cc3c(cc2Cl)COC3)c1C [Example 6, 2-((6-Chloro-1,3-dihydroisobenzofuran-5-yl)ethynyl)-N-(4,5-dimethylisoxazol-3-yl)pyridine-3-sulfonamide] | 1 to 10 nM | A (value of higher than 10×10^−8 cm/sec) |  |  | 
Cc1cc2c(cc1C#Cc1ncccc1S(=O)(=O)Nc1noc(C)c1C)C(=O)OC2 [Example 4, N-(4,5-Dimethylisoxazol-3-yl)-2-((6-methyl-3-oxo-1,3-dihydroisobenzofuran-5-yl)ethynyl)pyridine-3-sulfonamide] | ≤ 1 nM | C (membrane permeation rate value of 1×10^−8 cm/sec or lower) | ++ (ETB IC50 value/ETA IC50 value of higher than 5000) |  | 
Cc1cc2c(cc1C#Cc1ncccc1S(=O)(=O)Nc1onc(C)c1C)C(C)(C)OC2 [Example 8, N-(3,4-Dimethylisoxazol-5-yl)-2-((3,3,6-trimethyl-1,3-dihydroisobenzofuran-5-yl)ethynyl)pyridine-3-sulfonamide] | ≤ 1 nM | B (value in the range of higher than 1×10^−8 cm/sec and 10×10^−8 cm/sec or lower) | ++ (ETB IC50 value/ETA IC50 value of higher than 5000) |  | 
Cc1onc(NS(=O)(=O)c2cccnc2C#Cc2ccc3c(c2)COC3)c1C [Example 5, 2-((1,3-Dihydroisobenzofuran-5-yl)ethynyl)-N-(4,5-dimethylisoxazol-3-yl)pyridine-3-sulfonamide] | 1 to 10 nM | B (value in the range of higher than 1×10^−8 cm/sec and 10×10^−8 cm/sec or lower) |  |  | 
Cc1cc2c(cc1C#Cc1ncccc1S(=O)(=O)Nc1noc(C)c1C)COC2 [Example 3, N-(4,5-Dimethylisoxazol-3-yl)-2-((6-methyl-1,3-dihydroisobenzofuran-5-yl)ethynyl)pyridine-3-sulfonamide] | ≤ 1 nM | A (value of higher than 10×10^−8 cm/sec) | ++ (ETB IC50 value/ETA IC50 value of higher than 5000) | 322 ± 435 mmHg*min | 113 ± 565 mmHg*min

Now from value to molecule, other results behind:

IC50 [1] | Membrane permeation rate [3] | Compound | ETA selectivity (ETB/ETA) [1] | Diastolic blood pressure delta AUC0-60 min [2] | Systolic blood pressure delta AUC0-60 min [2]
≤ 1 nM | A (value of higher than 10×10^−8 cm/sec) | Cc1cc2c(cc1C#Cc1ncccc1S(=O)(=O)Nc1noc(C)c1C)C(C)(C)OC2 [Example 1, N-(4,5-Dimethylisoxazol-3-yl)-2-((3,3,6-trimethyl-1,3-dihydroisobenzofuran-5-yl)ethynyl)pyridine-3-sulfonamide] | ++ (ETB IC50 value/ETA IC50 value of higher than 5000) | 278 ± 539 mmHg*min | 83 ± 508 mmHg*min
≤ 1 nM | A (value of higher than 10×10^−8 cm/sec) | Cc1cc2c(cc1C#Cc1ncccc1S(=O)(=O)Nc1onc(C)c1Cl)C(C)(C)OC2 [Example 9, N-(4-Chloro-3-methylisoxazol-5-yl)-2-((3,3,6-trimethyl-1,3-dihydroisobenzofuran-5-yl)ethynyl)pyridine-3-sulfonamide] | ++ (ETB IC50 value/ETA IC50 value of higher than 5000) |  | 
≤ 1 nM | A (value of higher than 10×10^−8 cm/sec) | Cc1cc2c(cc1C#Cc1ncccc1S(=O)(=O)Nc1noc(C)c1Cl)C(C)(C)OC2 [Example 7, N-(4-Chloro-5-methylisoxazol-3-yl)-2-((3,3,6-trimethyl-1,3-dihydroisobenzofuran-5-yl)ethynyl)pyridine-3-sulfonamide] |  |  | 
≤ 1 nM | A (value of higher than 10×10^−8 cm/sec) | COc1nc(C)cnc1NS(=O)(=O)c1cccnc1C#Cc1cc2c(cc1C)COC2(C)C [Example 10, N-(3-Methoxy-5-methylpyrazin-2-yl)-2-((3,3,6-trimethyl-1,3-dihydroisobenzofuran-5-yl)ethynyl)pyridine-3-sulfonamide] | ++ (ETB IC50 value/ETA IC50 value of higher than 5000) |  | 
